Patent US4800194A, “Acylphosphorotriamides useful as lipid-altering agents” (priority 1986, dated 1989)

Legend:
acetylcholinesterase = target: T1, acetylcholinesterase (Homo sapiens, UniProt P22303); test: Inhibition of acetylcholinesterase (AChE) activity of lysed human red blood cells (Test Method 1); assay type: biochemical; conditions: 60 min preincubation
T1 construct: The supernatant (lysed RBC's) was stored frozen; from tissue; host or cells: lysed human red blood cells (supernatant of hypotonic lysis)
T1 sequence (P22303 other isoform, or with tags, fused parts or gaps): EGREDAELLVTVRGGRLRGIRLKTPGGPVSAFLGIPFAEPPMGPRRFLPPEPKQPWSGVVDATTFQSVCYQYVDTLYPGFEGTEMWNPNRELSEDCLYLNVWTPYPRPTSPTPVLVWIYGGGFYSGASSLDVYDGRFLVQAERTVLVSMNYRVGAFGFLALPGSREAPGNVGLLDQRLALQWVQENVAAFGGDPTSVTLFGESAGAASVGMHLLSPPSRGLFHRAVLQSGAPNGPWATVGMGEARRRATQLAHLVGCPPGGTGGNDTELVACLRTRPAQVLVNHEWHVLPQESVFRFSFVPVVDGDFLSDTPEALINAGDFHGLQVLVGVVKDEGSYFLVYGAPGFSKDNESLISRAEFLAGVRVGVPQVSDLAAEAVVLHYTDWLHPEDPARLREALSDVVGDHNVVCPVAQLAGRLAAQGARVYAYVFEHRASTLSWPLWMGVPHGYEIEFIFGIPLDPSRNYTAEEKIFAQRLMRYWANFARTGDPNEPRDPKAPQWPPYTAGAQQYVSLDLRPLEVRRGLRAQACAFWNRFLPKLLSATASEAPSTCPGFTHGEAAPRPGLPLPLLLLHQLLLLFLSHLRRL
Procedure: The following method was used to determine the relative inhibition of pseudocholinesterase and acetylcholinesterase by compounds of the present invention.
Lysed Red Blood Cells (RBC's) (Source of Acetylcholinesterase Enzyme)
Human blood which was collected in EDTA treated tubes was centrifuged at 1500×g for 10 min. at 4° C. One volume of chilled 0.9% saline solution was gently mixed with one volume of packed RBC's. One volume of this suspension was then washed three times with ten volumes of chilled 0.9% saline solution (4° C.). Each wash was centrifuged at 1500×g for 10 min. at 4° C. and supernatant was discarded. After the last wash the supernatant was replaced with deionized, distilled water (treated by Milli-Q apparatus, Millipore Corp., Bedford, MA) (4° C.). After 15 min. at 4° C. the suspension was centrifuged at 1500×g for 10 min. at 4° C. The supernatant (lysed RBC's) was stored frozen at -20° C. until use.
The buffer/chromogen solution was 0.25 mM 5,5'-dithiobis-[2-nitrobenzoic acid] (chromogen), 50 mM phosphate buffer, pH 7.2. In making up the buffer/chromogen solution and to keep it as colorless as possible, the phosphate buffer was first adjusted to pH 7.1 with NaOH; the chromogen was then added and dissolved; the pH was adjusted to 7.2; and the final volume was adjusted with addition of Milli-Q water. 5,5'-dithiobis-(2-nitrobenzoic acid) was obtained from Sigma Chemicals, St. Louis, MO.
The substrate solution for the pseudocholinesterase assay was 156 mM S-butyrylthiocholine iodide, and the substrate solution for the acetylcholinesterase assay was 156 mM S-acetylthiocholine iodide. Both substrate compounds were obtained from Sigma Chemicals.
Test Compound Stock Solutions
Solutions of all test compounds were made up at 2 μM, 20 μM, and 200 μM concentrations (in 0.9% saline solution) except as noted where lower concentrations were necessary because of decreased solubility of the compound in saline solution.
Acetylcholinesterase (AChE) Assay
The acetylcholinesterase assay was performed identically to the pseudocholinesterase assay with the following exceptions. The concentrations of the stock solutions of test compounds were 20 μM and 200 μM, instead of 2 μM and 20 μM, and the substrate solution was 156 mM S-acetylthiocholine iodide instead of S-butyrylthiocholine iodide. The lysed RBC's/test compound solution was incubated for 0 and 60 minutes instead of 0 and 30 minutes before being added to the cuvette containing the buffer/chromogen/substrate solution. From a plot of net absorbance versus time there was an initial period before the curve reached a steady linear rate. From this linear portion of the curve a rate of absorbance change per minute was calculated.
Each compound was tested for its ability to inhibit plasma pseudocholinesterase activity and acetylcholinesterase activity. Because of variation in the time points in the linear portion of the curve, inhibition values below 10-15% and higher than 85-90% are nearly indistinguishable from 0% and 100%, respectively.

pseudocholinesterase = test: Multiple dose study in hyperlipidemic guinea pigs: plasma pseudocholinesterase activity (Test Method 2, Example 29); assay type: in vivo, guinea pig; conditions: 2.5 mg/kg i.p. once daily
Description: Male Hartley guinea pigs (Elm Hill Breeding Labs., Chelmsford, MA or Charles River, Wilmington, MA) was used in all experiments unless otherwise specified. The animals were maintained on a normal diet of rabbit pellets (Purina Rabbit Chow 5321, Ralston Purina, St. Louis, MO) and water containing 0.1% ascorbic acid ad libitum. For special studies in the hyperlipidemic guinea pig model, the animals were maintained on the high cholesterol diet described in this report and water containing 0.1% ascorbic acid ad libitum.
Individual animals were identified by ear and cage markings. The dose of drug or placebo was adjusted daily for changes in the weight of the guinea pigs. Blood samples were collected in EDTA Vacutainers by open chest cardiac puncture under carbon dioxide anesthesia from guinea pigs which had been fasted overnight. The animals were then sacrificed by CO2 inhalation. Blood samples were centrifuged at 2000 rpm for 15 min. in an IEC centrifuge (International Equipment Co., Boston, MA) with a 240 rotor for isolation of plasma. Lipoprotein analyses of plasma were carried out on the same day as the blood collection. Assays of pseudocholinesterase activity were carried out within a week of blood collection on plasma samples which had been stored at 4° C.
The assay method used was based on the procedure described in Ellman, G. L., K. D. Courtney, V. Andres & R. M. Featherstone, "A New and Rapid Colorimetric Determination of Acetylcholinesterase Activity", Biolchemical Pharmacology, Vol. 7 (1961), pp. 88-95. Reactions were carried out at 35° C. in pH 7.2 NaH2 PO4 50 mM buffer containing 5 mM butyrylthiocholine iodide (substrate) and 0.25 mM 5,5'-dithiobis-[2-nitrobenzoic acid] (chromogen). The rate of change of absorbance at 405 nm with time was monitored by means of a Cary 16 spectrophotometer (Varian Associates, Walnut Creek, CA) or a Beckman DU-8B spectrophotometer (Beckman Instruments, Inc., Palo Alto, CA). Corrections were made for non-enzymic hydrolysis of substrate.
Enzyme Buffer: 6.90 g (50 mmol) NaH2 PO4.H2 O+[…] (0.25 mmol) 5,5'-dithiobis-(2-nitrobenzoic acid). The reagents were dissolved in Milli-Q purified distilled water, titrated to pH 7.2 with 1N NaOH, and diluted to one liter with water.
Substrate: 0.2476 g (0.780 mmol) S-butyrylthiocholine iodide (BTC). The substrate was dissolved in 5 ml of Milli-Q purified distilled water. [BTC]=156 mM.
Into a 1-cm pathlength cuvette was placed 3.0 ml of enzyme buffer. At least 10 min. was allowed for temperature equilibration. A 100 μl aliquot of substrate was added to the cuvette, the solution was mixed and about 3 min. was allowed for determination of the non-enzymic rate of substrate hydrolysis before the enzymic reaction was initiated by addition of 25 μl of plasma. The increase in absorbance at 405 nm was measured vs. a blank containing enzyme buffer.
Into a 1-cm pathlength cuvette was placed 3.0 ml of enzyme buffer and 100 μl of substrate. The solution was mixed and about 10 min. was allowed for temperature equilibration. The reaction was initiated by addition of 25 μl of plasma. The increase in absorbance at 405 nm was measured vs. a blank containing enzyme buffer and substrate. No additional correction for non-enzymic substrate hydrolysis was necessary.
A 1:15 mixture of cholesterol:corn oil was prepared by adding 25 g of USP cholesterol (Sigma Chemical Company, St. Louis, MO) to 375 g of corn oil (Mazola, Best Foods, CPC International, Inc., Englewood Cliffs, NJ). The mixture was stirred, sonicated, and heated in a hot water bath until the cholesterol completely dissolved. It was necessary to keep the mixture warm (50°-60° C.) in order to prevent congealing.
Batches of feed were prepared by adding 160 g of the cholesterol-corn oil solution to 840 g of Purina Rabbit Chow 5321. The pellets and lipid mixture were thoroughly mixed in a 2-liter or 3-liter Erlenmeyer flask to ensure uniform coating of the pellets. The feed was then stored at room temperature until needed. […]

For NP(N)(=O)NC(=O)c1ccc(F)cc1 [Test Compound 4, N-(diaminophosphinyl)-4-fluorobenzamide], the inhibition at 10 µM (acetylcholinesterase; 10 μM) was 12.4%, the inhibition at 100 µM (acetylcholinesterase; 100 μM) was 52.3% and the “% PChE Inhibition (Compared to Control)” value (pseudocholinesterase; day 1) was 51.6%. The “% PChE Inhibition (Compared to Control)” value (pseudocholinesterase; day 3) was 45.0%, the “% PChE Inhibition (Compared to Control)” value (pseudocholinesterase; day 7) was 58.6% and the “% PChE Inhibition (Compared to Control)” value (pseudocholinesterase; day 10) was 65.0%. The “% PChE Inhibition (Compared to Control)” value (pseudocholinesterase; day 14) was 69.0% and the “plasma pseudocholinesterase activity vs saline-treated control” value (pseudocholinesterase; high cholesterol diet, result in words) was “substantially lower plasma pseudocholinesterase activity”.
